Test results from patent publication US20240376108A1, “SALT AND CRYSTAL FORM OF PYRAZOLE-CONTAINING POLYCYCLIC DERIVATIVE, AND PREPARATION METHOD THEREFOR AND USE THEREOF” (Shanghai Hansoh Biomedical Co., Ltd., priority 2021, published 2024).

Tests used:
[1] = Solid stability experiment (high temperature, high humidity, high temperature and high humidity); format: physicochemical; conditions: for solid stability under high humidity: 92.5% RH
Protocol: 4.1.1 Experimental objective: To investigate the physical and chemical stability of the crystal form of the compound under the conditions of high temperature, high humidity, as well as high temperature and high humidity, so as to provide a basis for crystal form screening and storage of the crystal form of the compound.
The content of the salt was determined by HPLC using the external standard method, and the change of relevant substances was calculated by using the chromatographic peak area normalization method.

[2] = Pharmacokinetic assay of the salt forms in rats (10 mg/kg); format: in vivo; conditions: SD rats; for exposure AUC and maximum plasma concentration Cmax compared with the free base: 10 mg/kg; for AUC(0-t) / MRT inf / half-life / Tmax / Cmax: male, rat, po, p.o. 10 mg/kg, plasma, vehicle 0.5% HPMC; for AUC(0-t): read-out: Area under curve AUC0-t; for MRT inf: read-out: Average residence time MRT0-∞; for half-life: read-out: Half life t1/2 (converted); for Tmax: read-out: Peak time tmax; for Cmax: read-out: Plasma concentration Cmax
Protocol: 2.3 Pharmacokinetic assay of the methanesulfonate in rats
2.3.1. Study objective: SD rats were used as test animals. The pharmacokinetic behavior of various salt forms of 2-(2-cyano-5-oxo-8-(trifluoromethyl)pyrazolo[1,5-a]pyrido[3,2-e]pyrimidin-4(5H)-yl)-N-(5-fluoropyridin-2-yl)acetamide was studied in rat body (plasma) by orally administration at a dose of 10 mg/kg.
2.3.2.4 Administration: After an overnight fast, male SD rats (3 rats per group) were administered p.o. with the test compound at a dose of 10 mg/kg and a volume of 10 mL/kg.
2.3.2.5 Sample collection: 0.2 mL of blood was taken from the jugular vein of the rat before administration and at 0, 0.5, 1, 2, 4, 6, 8 and 24 hours after administration. The samples were stored in EDTA-K2 tubes, and centrifuged for 6 minutes at 4° C., 6000 rpm to separate the plasma. The plasma samples were stored at −80° C.
1) 160 μL of acetonitrile was added to 40 μL of the plasma sample for precipitation, and then the mixture was centrifuged at 3500×g for 5 to 20 minutes.
2) After the above process, 100 μL of the supernatant was taken to analyze the concentration of the test compound by LC/MS/MS.
2.3.2.7 Liquid chromatography analysis • Liquid chromatography condition: Shimadzu LC-20AD pump • Mass spectrometry condition: AB Sciex API 4000 mass spectrometer • Chromatographic column: phenomenex Gemiu 5 um C18 50×4.6 mm • Mobile phase: Eluent A was 0.1% formic acid in water, and Eluent B was acetonitrile • Flow rate: 0.8 mL/min • Elution time: 0-4.0 minutes, the eluent is as follows:
The main parameters of pharmacokinetics were calculated by WinNonlin 8.2.

[3] = Hygroscopicity experiment (DVS); format: physicochemical; conditions: 25° C.
Text: 7.1 Hygroscopicity experiment of crystal forms of different salts of compound 2-(2-cyano-5-oxo-8-(trifluoromethyl)pyrazolo[1,5-a]pyrido[3,2-e]pyrimidin-4(5H)-yl)-N-(5-fluoropyridin-2-yl)acetamide
7.1.1 Experimental objective: To investigate the hygroscopicity of crystal forms of different salts of compound 2-(2-cyano-5-oxo-8-(trifluoromethyl)pyrazolo[1,5-a]pyrido[3,2-e]pyrimidin-4(5H)-yl)-N-(5-fluoropyridin-2-yl)acetamide at different relative humidity, so as to provide a basis for storage.
7.1.2 Experimental protocol: Crystal forms of different salts of the compound were placed in saturated water vapor with different relative humidity to achieve dynamic equilibrium between the compound and water vapor, and the percentage of hygroscopic weight gain of the compound after equilibrium was calculated.

[4] = High humidity (92.5% RH), Day 7
[5] = High humidity (92.5% RH), Day 14
[6] = High temperature (60° C.), Day 7
[7] = High temperature (60° C.), Day 14
[8] = High temperature and high humidity (50° C.&75% RH), Day 7
[9] = High temperature and high humidity (50° C.&75% RH), Day 14
[10] = Cycle 1, target relative humidity 0.0%
[11] = Cycle 1, target relative humidity 10.0%
[12] = Cycle 1, target relative humidity 20.0%
[13] = Cycle 1, target relative humidity 30.0%
[14] = Cycle 1, target relative humidity 40.0%
[15] = Cycle 1, target relative humidity 50.0%
[16] = Cycle 1, target relative humidity 60.0%
[17] = Cycle 1, target relative humidity 70.0%
[18] = Cycle 1, target relative humidity 80.0%
[19] = Cycle 1, target relative humidity 90.0%
[20] = Cycle 1, target relative humidity 95.0%
[21] = Cycle 2, target relative humidity 0.0%
[22] = Cycle 2, target relative humidity 10.0%
[23] = Cycle 2, target relative humidity 20.0%
[24] = Cycle 2, target relative humidity 30.0%
[25] = Cycle 2, target relative humidity 40.0%
[26] = Cycle 2, target relative humidity 50.0%
[27] = Cycle 2, target relative humidity 60.0%
[28] = Cycle 2, target relative humidity 70.0%
[29] = Cycle 2, target relative humidity 80.0%
[30] = Cycle 2, target relative humidity 90.0%
[31] = Cycle 2, target relative humidity 95.0%

SMILES: CCS(=O)(=O)O.N#Cc1cc2n(CC(=O)Nc3ccc(F)cn3)c(=O)c3ccc(C(F)(F)F)nc3n2n1 [Ethanesulfonate (crystal form A), 2-(2-cyano-5-oxo-8-(trifluoromethyl)pyrazolo[1,5-a]pyrido[3,2-e]pyrimidin-4(5H)-yl)-N-(5-fluoropyridin-2-yl)acetamide ethanesulfonate]
- solid stability under high temperature ([1]; 60° C., 7 and 14 days): stable
- solid stability under high humidity ([1]; 7 and 14 days): stable
- % increase of total impurities [1, 4]: <0.1%
- % maximum increase of single impurity [1, 4]: <0.1%
- % increase of total impurities [1, 5]: <0.1%
- % maximum increase of single impurity [1, 5]: <0.1%
- % increase of total impurities [1, 6]: >0.2%
- % maximum increase of single impurity [1, 6]: <0.1%
- % increase of total impurities [1, 7]: <0.1%
- % maximum increase of single impurity [1, 7]: <0.1%
- % increase of total impurities [1, 8]: >0.3%
- % maximum increase of single impurity [1, 8]: >0.1%
- % increase of total impurities [1, 9]: >0.2%
- % maximum increase of single impurity [1, 9]: >0.1%
- exposure AUC and maximum plasma concentration Cmax compared with the free base [2]: superior
- AUC(0-t) [2]: 30300 ng·h/mL
- MRT inf [2]: 4.9 h
- half-life [2]: 2.6 h
- Tmax [2]: 4 h
- Cmax [2]: 3840 ng/mL
- % percentage of mass change, Desorption [3, 10]: −0.012%
- % percentage of mass change, Sorption [3, 10]: 0.000%
- % percentage of mass change, Desorption [3, 11]: 0.042%
- % percentage of mass change, Sorption [3, 11]: 0.051%
- % percentage of mass change, Desorption [3, 12]: 0.090%
- % percentage of mass change, Sorption [3, 12]: 0.094%
- % percentage of mass change, Desorption [3, 13]: 0.137%
- % percentage of mass change, Sorption [3, 13]: 0.139%
- % percentage of mass change, Desorption [3, 14]: 0.192%
- % percentage of mass change, Sorption [3, 14]: 0.183%
- % percentage of mass change, Desorption [3, 15]: 0.260%
- % percentage of mass change, Sorption [3, 15]: 0.231%
- % percentage of mass change, Desorption [3, 16]: 0.334%
- % percentage of mass change, Sorption [3, 16]: 0.297%
- % percentage of mass change, Desorption [3, 17]: 0.442%
- % percentage of mass change, Sorption [3, 17]: 0.401%
- % percentage of mass change, Desorption [3, 18]: 0.625%
- % percentage of mass change, Sorption [3, 18]: 0.572%
- % percentage of mass change, Desorption [3, 19]: 1.135%
- % percentage of mass change, Sorption [3, 19]: 1.025%
- % percentage of mass change, Desorption [3, 20]: 1.927%
- % percentage of mass change, Sorption [3, 20]: 1.927%
- % percentage of mass change, Desorption [3, 21]: −0.016%
- % percentage of mass change, Sorption [3, 21]: −0.012%
- % percentage of mass change, Desorption [3, 22]: 0.035%
- % percentage of mass change, Sorption [3, 22]: 0.037%
- % percentage of mass change, Desorption [3, 23]: 0.083%
- % percentage of mass change, Sorption [3, 23]: 0.083%
- % percentage of mass change, Desorption [3, 24]: 0.130%
- % percentage of mass change, Sorption [3, 24]: 0.127%
- % percentage of mass change, Desorption [3, 25]: 0.184%
- % percentage of mass change, Sorption [3, 25]: 0.174%
- % percentage of mass change, Desorption [3, 26]: 0.250%
- % percentage of mass change, Sorption [3, 26]: 0.228%
- % percentage of mass change, Desorption [3, 27]: 0.321%
- % percentage of mass change, Sorption [3, 27]: 0.295%
- % percentage of mass change, Desorption [3, 28]: 0.421%
- % percentage of mass change, Sorption [3, 28]: 0.388%
- % percentage of mass change, Desorption [3, 29]: 0.584%
- % percentage of mass change, Sorption [3, 29]: 0.541%
- % percentage of mass change, Desorption [3, 30]: 1.020%
- % percentage of mass change, Sorption [3, 30]: 0.942%
- % percentage of mass change, Desorption [3, 31]: 1.683%
- % percentage of mass change, Sorption [3, 31]: 1.683%

SMILES: N#Cc1cc2n(CC(=O)Nc3ccc(F)cn3)c(=O)c3ccc(C(F)(F)F)nc3n2n1.O=S(=O)(O)O [Sulfate (crystal form B), 2-(2-cyano-5-oxo-8-(trifluoromethyl)pyrazolo[1,5-a]pyrido[3,2-e]pyrimidin-4(5H)-yl)-N-(5-fluoropyridin-2-yl)acetamide sulfate]
- solid stability under high humidity ([1]; 7 and 14 days): stable
- % increase of total impurities [1, 4]: <0.1%
- % maximum increase of single impurity [1, 4]: <0.1%
- % increase of total impurities [1, 5]: <0.1%
- % maximum increase of single impurity [1, 5]: <0.1%
- % increase of total impurities [1, 6]: >0.2%
- % maximum increase of single impurity [1, 6]: <0.1%
- % increase of total impurities [1, 7]: >0.4%
- % maximum increase of single impurity [1, 7]: >0.1%
- % increase of total impurities [1, 8]: >0.2%
- % maximum increase of single impurity [1, 8]: >0.1%
- % increase of total impurities [1, 9]: >0.2%
- % maximum increase of single impurity [1, 9]: >0.1%
- exposure AUC and maximum plasma concentration Cmax compared with the free base [2]: superior
- AUC(0-t) [2]: 21600 ng·h/mL
- MRT inf [2]: 4.6 h
- half-life [2]: 2.8 h
- Tmax [2]: 2 h
- Cmax [2]: 3080 ng/mL
- % percentage of mass change, Desorption [3, 10]: −0.027%
- % percentage of mass change, Sorption [3, 10]: −0.002%
- % percentage of mass change, Desorption [3, 11]: 0.087%
- % percentage of mass change, Sorption [3, 11]: 0.099%
- % percentage of mass change, Desorption [3, 12]: 0.168%
- % percentage of mass change, Sorption [3, 12]: 0.171%
- % percentage of mass change, Desorption [3, 13]: 0.250%
- % percentage of mass change, Sorption [3, 13]: 0.236%
- % percentage of mass change, Desorption [3, 14]: 0.341%
- % percentage of mass change, Sorption [3, 14]: 0.303%
- % percentage of mass change, Desorption [3, 15]: 0.456%
- % percentage of mass change, Sorption [3, 15]: 0.376%
- % percentage of mass change, Desorption [3, 16]: 0.540%
- % percentage of mass change, Sorption [3, 16]: 0.455%
- % percentage of mass change, Desorption [3, 17]: 0.652%
- % percentage of mass change, Sorption [3, 17]: 0.552%
- % percentage of mass change, Desorption [3, 18]: 0.777%
- % percentage of mass change, Sorption [3, 18]: 0.691%
- % percentage of mass change, Desorption [3, 19]: 1.118%
- % percentage of mass change, Sorption [3, 19]: 1.010%
- % percentage of mass change, Desorption [3, 20]: 1.608%
- % percentage of mass change, Sorption [3, 20]: 1.608%
- % percentage of mass change, Desorption [3, 21]: −0.051%
- % percentage of mass change, Sorption [3, 21]: −0.027%
- % percentage of mass change, Desorption [3, 22]: 0.065%
- % percentage of mass change, Sorption [3, 22]: 0.070%
- % percentage of mass change, Desorption [3, 23]: 0.149%
- % percentage of mass change, Sorption [3, 23]: 0.147%
- % percentage of mass change, Desorption [3, 24]: 0.230%
- % percentage of mass change, Sorption [3, 24]: 0.218%
- % percentage of mass change, Desorption [3, 25]: 0.322%
- % percentage of mass change, Sorption [3, 25]: 0.287%
- % percentage of mass change, Desorption [3, 26]: 0.422%
- % percentage of mass change, Sorption [3, 26]: 0.369%
- % percentage of mass change, Desorption [3, 27]: 0.529%
- % percentage of mass change, Sorption [3, 27]: 0.450%
- % percentage of mass change, Desorption [3, 28]: 0.632%
- % percentage of mass change, Sorption [3, 28]: 0.545%
- % percentage of mass change, Desorption [3, 29]: 0.761%
- % percentage of mass change, Sorption [3, 29]: 0.682%
- % percentage of mass change, Desorption [3, 30]: 1.087%
- % percentage of mass change, Sorption [3, 30]: 1.007%
- % percentage of mass change, Desorption [3, 31]: 1.618%
- % percentage of mass change, Sorption [3, 31]: 1.618%
